The numbers were not newly measured in patent US20240377378A1, “TRACER METHODS FOR THE DETERMINATION OF SORBENT CONTENT IN SOILS” (Regenesis Bioremediation Products, priority 2023, published 2024), which cites them from elsewhere.

The Solubility is the dissolved amount per volume that the medium holds. One may read the pKa as the pH at which an ionisable group is half protonated.

For series [1] the following is noted: water.
For series [2] the following is noted: under normal conditions (Congo Red: normal or ambient conditions).
The conditions of series [3]: 2012 OSHA Hazard Communication Standard.

`Nc1c(/N=N/c2ccc(-c3ccc(/N=N/c4cc(S(=O)(=O)O)c5ccccc5c4N)cc3)cc2)cc(S(=O)(=O)O)c2ccccc12` [Congo Red]: in series [1], the Solubility is 25 to 116 mg/mL. Further, in series [2], the “Chemical Stability” value is on record as “Stable under”. For the same compound, in series [3], the carcinogenicity hazard category result was “(Category 1B),” and the “reproductive toxicity hazard category” value is given as “(Category 2)”.
As to `CCN(CC)c1ccc2c(-c3ccccc3C(=O)O)c3ccc(=[N+](CC)CC)cc-3oc2c1.[Cl-]` [Rhodamine B], the pKa is reported as 3.1-3.22. Moreover, in series [2], the “Chemical Stability” value was “Stable under”. Also, in series [3], the “Serious eye damage/eye irritation hazard category” value is on record as “(Category 1)” and the “acute oral toxicity hazard category” value is on record as “(Category 4),”.
In the case of `O=S(=O)(O)c1cc(S(=O)(=O)O)c2c(/N=N/c3ccccc3)c(O)ccc2c1` [Orange G], the pKa is 11.5. In series [1], the Solubility is 50 to 100 mg/mL and the “Solubility (in words)” value was “soluble in water”. The “Chemical Stability” value in series [2] was “Stable under”. In addition, the “Hazard Identification: criteria for hazardous classification” value in series [3] was “Does not meet”.
